The source of these data is patent US11161839B2, “2-quinolone derived inhibitors of BCL6” (Cancer Research Technology Limited, priority 2017, dated 2021).

For test [1], the target named is human BCL6 BTB domain (Trx-6xHis-BCL6) (Homo sapiens (Human), UniProt P41182). In words: HTRF in vitro assay (BCL6 BTB domain / BCOR-AF633 peptide). The test is classed as binding. The note with it: further generated data (Table 1b), 1 nM Trx-6xHis-BCL6, 0.5 nM anti-6xHis-Terbium cryptate.
Method: The % inhibition at each concentration was calculated by normalising FRET ratio to the appropriate high (DMSO with all reagents) and low (DMSO without BCL6) controls.
In test [2] the test system is SU-DHL-4 cells. In words: 14-day cell proliferation assay (CellTiter Glo). Type of test: cell-based. The note with it: Homo sapiens, SU-DHL4 cells, 14 days. Here is the method:
The volume of medium containing 2000 cells in the control well was calculated and this volume of cells was transferred from every well of the assay plates to the corresponding well of the fresh plates containing compound. After 14 days, CellTiter Glo reagent (Promega) was added to the medium in each well of the assay plate at a ratio of 1:2, mixed on a plate shaker, then incubated at room temperature for 10 minutes. Luminescence was measured using an Envision plate reader (Perkin Elmer) and the relative luminescence at each compound concentration, compared to DMSO alone, was calculated. IC50 were determined using a 4-parameter curve fit in Dotmatics (Bishops Stortford, UK).

Test [3] concerns the target BCL6-NCOR2(SMRT) corepressor protein-protein interaction (Homo sapiens (Human), UniProt P41182). In words: NanoBRET cell assay in transfected HEK293T cells. The test is classed as cell-based. Particulars: further generated data (Table 2b); HEK293T cells, 6 hr; read-out: NanoBRET cell pIC50 (converted).
From the text: A cellular nano-Bioluminescence Resonance Energy Transfer (nanoBRET) assay (Promega NanoBRET Nano-Glo Detection System, catalogue number N1662) was used to detect inhibition of the BCL6-NCOR2(SMRT) corepressor protein-protein interaction. DNA encoding full length BCL6 and NCOR2 were inserted into pFC32K.NanoLuc and pFC14K.HaloTag vectors (Promega) to produce C-terminal tagged fusion proteins BCL6-nanoLuc and NCOR2-HaloTag, respectively. […] Frozen transfected HEK293T cells were thawed, centrifuged and freezing medium was replaced by phenol red-free OptiMEM+4% FBS (Life Technology). […] Cells were incubated for 6 hr at 37° C./5% CO2 then NanoBRET furimazine substrate (Promega) was added to give a final concentration of 10 μM. After a short centrifugation the plates were read on an Envision (Perkin Elmer) plate reader equipped with a LUM/D600 Dual mirror, Lum 450/40 nm bandpass and D605 nm longpass filters, with a 0.2 sec reading to determine the BRET ratio. The % inhibition at each test concentration was calculated by normalising the BRET ratio to the appropriate high and low controls.

With `CC(Nc1nc(=O)n(C)c2ccc(Nc3nc(N4C[C@@H](C)C(F)(F)[C@@H](C)C4)ncc3Cl)cc12)c1ncccn1` (mixture of isomers) [Example 12h, rac-6-((5-chloro-2-((3R,5S)-4,4-difluoro-3,5-dimethylpiperidin-1-yl)pyrimidin-4-yl)amino)-1-methyl-4-((1-(pyrimidin-2-yl)ethyl)amino)quinazolin-2(1H)-one], the IC50 in test [1] (read-out: HTRF pIC50 (converted)) was 251 nM. Further, the 50% growth inhibitory concentration (GI50) in test [2] was 340 nM.

For the molecule `Cn1c(=O)cc(NC(C)(C)c2ncccn2)c2cc(Nc3ccnc(Cl)c3Cl)ccc21` [Example 6b, 6-((2,3-dichloropyridin-4-yl)amino)-1-methyl-4-((2-(pyrimidin-2-yl)propan-2-yl)amino)quinolin-2(1H)-one], the IC50 in test [3] is 1380 nM. Further, the “HTRF pIC50” value in test [1] came out at 6.81. In test [2], this molecule registered a GI50 of 2130 nM.

For the molecule `Cn1c(=O)cc(NC(C)(C)c2ncccn2)c2cc(Nc3cc(C(=O)N4CC(C(F)(F)F)C4)nc(Cl)c3C#N)ccc21` [Example 8d, 2-chloro-4-((1-methyl-2-oxo-4-((2-(pyrimidin-2-yl)propan-2-yl)amino)-1,2-dihydroquinolin-6-yl)amino)-6-(3-(trifluoromethyl)azetidine-1-carbonyl)nicotinonitrile], in test [3], the IC50 is 240 nM. Further, the “HTRF pIC50” value in test [1] came to 7.50. Besides, in test [2], halving of growth (GI50) required 450 nM.

For the molecule `CC(Nc1cc(=O)n(C)c2ccc(Nc3ccnc(Cl)c3C#N)cc12)c1ncc(N2C[C@@H](C)O[C@@H](C)C2)cn1` (stereo partly drawn) [Example 10b, 2-chloro-4-((4-((1-(5-((2S,6R)-2,6-dimethylmorpholino)pyrimidin-2-yl)ethyl)amino)-1-methyl-2-oxo-1,2-dihydroquinolin-6-yl)amino)nicotinonitrile], the IC50 in test [3] is 490 nM. For the same molecule, in test [1], the “HTRF pIC50” value worked out at 7.39. The same molecule came in with a 50% growth inhibitory concentration (GI50) in test [2] of 290 nM.

For the molecule `CC(Nc1cc(=O)n(C)c2ccc(Nc3ccnc(Cl)c3C#N)cc12)c1ncc(-c2cnn(C)c2)cn1` (stereo not drawn) [Example 10c, 2-chloro-4-((1-methyl-4-((1-(5-(1-methyl-1H-pyrazol-4-yl)pyrimidin-2-yl)ethyl)amino)-2-oxo-1,2-dihydroquinolin-6-yl)amino)nicotinonitrile], the IC50 in test [3] was 490 nM. The “HTRF pIC50” value in test [1] is listed as 7.45. The same molecule registered a GI50 in test [2] of 460 nM.

For `CC(Nc1cc(=O)n(C)c2ccc(Nc3ccnc(Cl)c3C#N)cc12)c1ncc(N2CCOC(C(F)(F)F)C2)cn1` (stereo not drawn) [Example 10d, 2-chloro-4-((1-methyl-2-oxo-4-((1-(5-(2-(trifluoromethyl)morpholino)pyrimidin-2-yl)ethyl)amino)-1,2-dihydroquinolin-6-yl)amino)nicotinonitrile], the IC50 in test [3] was 589 nM. Moreover, in test [1], the “HTRF pIC50” value amounted to 7.33. Moreover, the 50% growth inhibitory concentration (GI50) in test [2] was determined as 1480 nM.

`CC(Nc1cc(=O)n(C)c2ccc(Nc3ccnc(Cl)c3C#N)cc12)c1ncc(C2CC2)cn1` (stereo not drawn) [Example 10e, 2-chloro-4-((4-((1-(5-cyclopropylpyrimidin-2-yl)ethyl)amino)-1-methyl-2-oxo-1,2-dihydroquinolin-6-yl)amino)nicotinonitrile] gave a 50% growth inhibitory concentration (GI50) in test [2] of 1720 nM.

For the molecule `CC(Nc1cc(=O)n(C)c2ccc(Nc3ccnc(Cl)c3C#N)cc12)c1ncc(C2CCOCC2)cn1` (stereo not drawn) [Example 10w, 2-chloro-4-[[1-methyl-2-oxo-4-[1-(5-tetrahydropyran-4-ylpyrimidin-2-yl)ethylamino]-6-quinolyl]amino]pyridine-3-carbonitrile], in test [3], the IC50 was 912 nM. Further, in test [1], the “HTRF pIC50” value worked out at 7.58. The GI50 in test [2] was 1340 nM.

With `Cc1cc(C)n(-c2ncc(Cl)c(Nc3ccc4c(c3)c(N[C@H](C)C3CC3)cc(=O)n4C)n2)n1` [Example 14c, (R)-6-((5-chloro-2-(3,5-dimethyl-1H-pyrazol-1-yl)pyrimidin-4-yl)amino)-4-((1-cyclopropylethyl)amino)-1-methylquinolin-2(1H)-one], in test [3], the IC50 is 891 nM. The “HTRF pIC50” value in test [1] worked out at 6.54. Moreover, in test [2], growth was halved (GI50) at 760 nM.

Take `CC(Nc1cc(=O)n(C)c2ccc(Nc3ccnc(C#N)c3Cl)cc12)c1ncccn1` (stereo not drawn) [Example 19h, 3-chloro-4-((1-methyl-2-oxo-4-((1-(pyrimidin-2-yl)ethyl)amino)-1,2-dihydroquinolin-6-yl)amino)picolinonitrile]: the IC50 in test [3] is 15100 nM. For the same molecule, the “HTRF pIC50” value in test [1] was found to be 6.17.

With `Cn1c(=O)cc(NC2(c3ncccn3)CCOC2)c2cc(Nc3ccnc(Cl)c3C#N)ccc21` (stereo not drawn) [Example 19i, 2-chloro-4-((1-methyl-2-oxo-4-((3-(pyrimidin-2-yl)tetrahydrofuran-3-yl)amino)-1,2-dihydroquinolin-6-yl)amino)nicotinonitrile], the IC50 in test [3] was 9330 nM. In test [1], the “HTRF pIC50” value came to 6.38.

Consider `CC(Nc1cc(=O)n(C)c2ccc(Nc3ccnc(Cl)c3C#N)cc12)c1ncc(-c2cccnc2)cn1` (stereo not drawn) [Example 20, 2-chloro-4-((1-methyl-2-oxo-4-((1-(5-(pyridin-3-yl)pyrimidin-2-yl)ethyl)amino)-1,2-dihydroquinolin-6-yl)amino)nicotinonitrile], for which, in test [3], the IC50 was 479 nM. The “HTRF pIC50” value in test [1] was determined as 7.46.

As for `CC(=O)N(C)c1cc(Nc2ccc3c(c2)c(NC(C)c2ncccn2)cc(=O)n3C)c(Cl)cn1` (stereo not drawn) [Example 21, N-(5-Chloro-4-((1-methyl-2-oxo-4-((1-(pyrimidin-2-yl)ethyl)amino)-1,2-dihydroquinolin-6-yl)amino)pyridin-2-yl)-N-methylacetamide], the IC50 in test [3] was 6760 nM. Moreover, the “HTRF pIC50” value in test [1] worked out at 6.33.

As to `Cn1c(=O)cc(NC2(C#N)CC2)c2cc(Nc3ccnc(Cl)c3C#N)ccc21` [Example 24b, 2-chloro-4-((4-((1-cyanocyclopropyl)amino)-1-methyl-2-oxo-1,2-dihydroquinolin-6-yl)amino)nicotinonitrile], in test [3], the IC50 was 4790 nM. The “HTRF pIC50” value in test [1] came to 6.49.

In the case of `CCC(C)(Nc1cc(=O)n(C)c2ccc(Nc3ccnc(Cl)c3C#N)cc12)c1ncccn1` (stereo not drawn) [Example 24c, 2-chloro-4-((1-methyl-2-oxo-4-((2-(pyrimidin-2-yl)butan-2-yl)amino)-1,2-dihydroquinolin-6-yl)amino)nicotinonitrile], the IC50 in test [3] was 5130 nM. In addition, the “HTRF pIC50” value in test [1] was 6.45.

For the molecule `C[C@@H](Nc1cc(=O)n(C)c2ncc(Nc3ccnc(Cl)c3C#N)cc12)C1CC1` [Example 24d, (R)-2-chloro-4-((5-((1-cyclopropylethyl)amino)-8-methyl-7-oxo-7,8-dihydro-1,8-naphthyridin-3-yl)amino)nicotinonitrile], the IC50 in test [3] is 4470 nM. Besides, the “HTRF pIC50” value in test [1] is given as 6.53.

As to `CC(Nc1cc(=O)n(C)c2ccc(Nc3ccnc(Cl)c3C#N)cc12)c1cc2ccccc2cn1` (stereo not drawn) [Example 24e, 2-chloro-4-((4-((1-(isoquinolin-3-yl)ethyl)amino)-1-methyl-2-oxo-1,2-dihydroquinolin-6-yl)amino)nicotinonitrile], in test [3], the IC50 was 3470 nM. Moreover, the “HTRF pIC50” value in test [1] amounted to 6.38.

On to `CC(Nc1cc(=O)n(C)c2ccc(Nc3ccnc(Cl)c3C#N)cc12)c1ncc(C2CCC2)cn1` (stereo not drawn) [Example 24f, 2-chloro-4-((4-((1-(5-cyclobutylpyrimidin-2-yl)ethyl)amino)-1-methyl-2-oxo-1,2-dihydroquinolin-6-yl)amino)nicotinonitrile], for which the IC50 in test [3] is 1620 nM. In test [1], the “HTRF pIC50” value is reported as 7.26.

For `C[C@@H]1CN(c2ncc(Cl)c(Nc3ccc4c(c3)c(NC(C)(C)c3ncccn3)nc(=O)n4C)n2)C[C@H](C)C1(F)F` [Example 25a, 6-((5-chloro-2-((3R,5S)-4,4-difluoro-3,5-dimethylpiperidin-1-yl)pyrimidin-4-yl)amino)-1-methyl-4-((2-(pyrimidin-2-yl)propan-2-yl)amino)quinazolin-2(1H)-one], the “HTRF pIC50” value in test [1] was 6.73. In test [2], this molecule gave a 50% growth inhibitory concentration (GI50) of 110 nM.

With `COCC1CCN1c1ncc(Cl)c(Nc2ccc3c(c2)c(N[C@H](C)C2CC2)cc(=O)n3C)n1` (stereo partly drawn) [Example 26b, 6-((5-chloro-2-(2-(methoxymethyl)azetidin-1-yl)pyrimidin-4-yl)amino)-4-(((R)-1-cyclopropylethyl)amino)-1-methylquinolin-2(1H)-one: formic acid (1:1)], the IC50 in test [3] is 2690 nM. For the same molecule, in test [1], the “HTRF pIC50” value came to 6.31.

As to `CC(Nc1nc(=O)n(C)c2ccc(Nc3nc(N4C[C@@H](C)O[C@@H](C)C4)ncc3Cl)cc12)c1ncccn1` (stereo partly drawn) [Example 26e, 6-[[5-chloro-2-[(2R,6S)-2,6-dimethylmorpholin-4-yl]pyrimidin-4-yl]amino)-1-methyl-4-(1-pyrimidin-2-ylethylamino)quinazolin-2-one], the IC50 in test [3] was 2880 nM. Besides, the “HTRF pIC50” value in test [1] amounted to 7.03.

For the molecule `C[C@@H]1CN(c2ncc(Cl)c(Nc3ccc4c(c3)c(NC(C)(C)c3ncccn3)nc(=O)n4C)n2)C[C@H](C)O1` [Example 26f, 6-[[5-chloro-2-[(2R,6S)-2,6-dimethylmorpholin-4-yl]pyrimidin-4-yl]amino-1-methyl-4-[(1-methyl-1-pyrimidin-2-yl)ethyl)amino]quinazolin-2-one:formic acid (1:1)], the IC50 in test [3] is 676 nM. In addition, in test [1], the “HTRF pIC50” value turned out to be 6.99. For the same molecule, the GI50 in test [2] worked out at 440 nM.
